Laboratory results taken from patent publication US20070271620A1, “Animal model for type II diabetes mellitus and Syndrome X and methods and uses thereof” (priority 2005, published 2007).
Values joined by “and” are separate entries in the source; they are usually repeats but may differ in a detail not shown here. Identical values can stand only once. Marks after values point to notes of the source that are not given here.

Key:
[1] = tested on: cross-bred pigs (Yorkshire×Landrace); test: Hyperinsulinemic euglycemic/hyperglycemic clamp in STZ diabetic pigs; type: in vivo, pig
Protocol: Protocol 2: insulin-mediated hepatic glucose production and whole body glucose uptake were studied with the hyperinsulinemic (1 or 2 mU/kg/minute) euglycemic clamp technique in combination with 6,6-^2H-glucose infusion in six normal and seven STZ (130 mg/kg) diabetic pigs.
Protocol 3: insulin-mediated whole body glucose disposal was studied with the hyperinsulinemic (2 or 8 mU/kg/minute) euglycemic clamp technique in six normal and six STZ (150 mg/kg) diabetic pigs.
Protocol 4: insulin-mediated whole body glucose disposal under influence of acute mass action of plasma glucose was studied with the hyperinsulinemic (2 mU/kg/minute), euglycemic (6 mmol/L) and hyperglycemic (22 mmol/L) clamp technique in four STZ (110 mg/kg) diabetic pigs.
After overnight fasting, at t=0 minute, insulin was administered as a prime—(17 or 34 mU/kg) continuous (1 or 2 mU/kg/minute) infusion for three hours in normal pigs. Simultaneously, a variable infusion of a 33% D-glucose solution was started and adjusted every ten minutes to maintain the plasma glucose concentration at euglycemic levels and a 6,6-^2H-glucose solution was given as a prime—(216 mg) continuous (3.6 mg/minute). Steady-state conditions were achieved within 90 minutes after initiation of the hyperinsulinemic clamp and steady-state calculations were carried out during the last hour of the clamp (t=120, 135, 150, 165 and 180 minutes). In hyperglycemic diabetic pigs, insulin was given as a prime—(34 or 136 mU/kg) continuous (2 or 8 mU/kg/minute) infusion for five hours. After reaching euglycemic levels, a variable infusion of a 33% D-glucose solution was started and adjusted every ten minutes to maintain the plasma glucose concentration at euglycemia. At t=2 hours, 6,6-^2H-glucose was administered as a prime— (216 mg) continuous (3.6 mg/minute) infusion for the last three hours of the clamp in diabetic pigs. Steady-state conditions were achieved during the last hour of the clamp and steady-state calculations were carried out at (t=240, 255, 270, 285 and 300 minutes).
Hyperinsulinemic hyperglycemic clamp experiments were carried out in diabetic pigs only. After overnight fasting, insulin was given as a prime—(34 mU/kg) continuous (2 mU/kg/minute) infusion for five hours. Simultaneously, a variable infusion of a 33% D-glucose solution was started and adjusted every ten minutes to maintain the plasma glucose concentration at hyperglycemia. Steady-state calculations were carried out during the last hour of the clamp (t=240, 255, 270, 285 and 300 minutes).
6,6-^2H-glucose kinetics: Fasting and insulin-mediated rate of appearance (Ra) of glucose was calculated by dividing the 6,6-^2H-glucose infusion rate (mg/minute) by the plasma 6,6-^2H-glucose enrichment (mg/mg %). Insulin-mediated hepatic glucose production was calculated as measured Ra glucose minus exogenous glucose infusion rate. Under hyperglycemic conditions, the rate of disappearance (Rd) of glucose, or whole body glucose uptake was corrected for urinary glucose excretion. This implies that whole body glucose uptake was calculated as measured Ra glucose minus urinary glucose excretion.

diabetic pigs = test: Plasma insulin response after a standard meal in diabetic pigs two and nine weeks after STZ infusion; type: in vivo, pig; conditions: STZ 140 mg/kg infused for ten minutes, 25 diabetic pigs
Protocol: After 24 hours fasting, a standard meal (523 kJ ME/kg BW^0.75) was fed to the pigs and blood was sampled up to 480 minutes after feeding). Pigs were studied two and nine weeks after streptozotocin (STZ) infusion (140 mg/kg for ten minutes). […] However, as judged by the severity of diabetes (quantified by the 24-hour urinary glucose excretion in relation to standard meal feeding), the recovery/regeneration/hypertrophy of beta-cells takes place in the first three to four weeks after STZ infusion and stops after that time period (see FIG. 6).

[2] = pigs, STZ 110 mg/kg, 2 mU/kg/minute clamp at euglycemia
[3] = pigs, STZ 110 mg/kg, 2 mU/kg/minute clamp at hyperglycemia
[4] = pigs, STZ 110 mg/kg, clamp at hyperglycemia
[5] = pigs, STZ 130 mg/kg, insulin clamp 2 mU/kg/minute
[6] = pigs, STZ 150 mg/kg, insulin clamp 8 mU/kg/minute

CN(N=O)C(=O)N[C@H]1C(O)O[C@H](CO)[C@@H](O)[C@@H]1O (mixture of isomers) [STZ, streptozotocin]
Steady-state glucose infusion rate compared to average in normal pigs ([1]; STZ 150 mg/kg, insulin 8 mU/kg/minute): approximately eight-fold lower | Fasting plasma insulin compared to normal and diabetic (1.50 mg STZ/kg) pigs ([1]; STZ 110 and 130 mg/kg, on average): two-fold higher | Steady-state glucose infusion rates compared to average in normal pigs ([1]; STZ 110 to 130 mg/kg, insulin 2 mU/kg/minute): five- to six-fold lower | Reduction in insulin action ([1]; STZ diabetic pigs): ~75% | Fasting plasma insulin, range ([1]; diabetic (150 mg STZ/kg) pigs): 0-6 mU/L | Increase of insulin-mediated whole body glucose disposal at hyperglycemia compared to euglycemia ([1]; pigs, STZ 110 mg/kg, 2 mU/kg/minute clamp): 16% | Fasting plasma glucose [1, 2]: 22.3 ± 2.1 mmol/L | Steady-state clamp glucose infusion rate (insulin-mediated whole body glucose disposal) [1, 2]: 5.1 mg/kg/min and 5.1 ± 1.0 mg/kg/min | Steady-state clamp plasma glucose [1, 2]: 6.0 ± 0.1 mmol/L | Steady-state clamp plasma insulin [1, 2]: 54 ± 16 mU/L | Time to reach euglycemia in diabetic pigs [1, 2]: 139 ± 23 min | Fasting plasma glucose [1, 3]: 23.0 ± 2.4 mmol/L | Insulin-mediated whole body glucose disposal (glucose infusion rate minus urinary glucose excretion) [1, 3]: 5.9 mg/kg/min and 5.9 ± 0.8 mg/kg/min | Steady-state clamp glucose infusion rate [1, 3]: 8.2 ± 0.8*^1) mg/kg/minute | Steady-state clamp plasma glucose [1, 3]: 22.4 ± 2.6 mmol/L | Steady-state clamp plasma insulin [1, 3]: 62 ± 19 mU/L | Fasting plasma insulin ([1]; pigs, STZ 110 mg/kg, clamp at euglycemia): 17 ± 13 mU/L | Fasting plasma insulin [1, 4]: 12 ± 5 mU/L | Fasting plasma insulin, range [1, 4]: range (3-21) mU/L | Fasting plasma insulin, range ([1]; pigs, STZ 130 mg/kg): 1-38 mU/L | Steady-state clamp glucose infusion rate [1, 5]: 5.0 ± 1.4 mg/kg/min | Steady-state clamp plasma glucose [1, 5]: 6.1 ± 0.8 mmol/L | Steady-state clamp plasma insulin [1, 5]: 45 ± 5 mU/L | Time to reach euglycemia in diabetic pigs [1, 5]: 145 ± 22 min | Fasting plasma glucose ([1]; pigs, STZ 130 mg/kg, insulin clamp 2 mU/kg/minute, with 6,6-2H-glucose infusion, mean ± SEM): 21.7 ± 1.1 mmol/L | Fasting plasma insulin ([1]; pigs, STZ 130 mg/kg, insulin clamp 2 mU/kg/minute, mean ± SEM): 9 mU/L | Fasting plasma insulin ([1]; pigs, STZ 130 mg/kg, insulin clamp 2 mU/kg/minute, mean ± SEM, listed as Streptozotocin): 9 ± 7 mU/L | Fasting plasma insulin, range ([1]; pigs, STZ 130 mg/kg, listed as Streptozotocin): range (1-38) mU/L | Fasting plasma insulin [1, 6]: 3 ± 1 mU/L | Steady-state clamp glucose infusion rate [1, 6]: 3.2 ± 1.0 mg/kg/min | Steady-state clamp plasma glucose [1, 6]: 7.5 ± 0.9 mmol/L | Steady-state clamp plasma insulin [1, 6]: 228 ± 36 mU/L | Time to reach euglycemia in diabetic pigs [1, 6]: 243 ± 21 min | Fasting plasma glucose ([1]; pigs, STZ 150 mg/kg, insulin clamp 8 mU/kg/minute, no tracer): 22.0 ± 0.8 mmol/L | Overnight fasting plasma glucose compared to normal pigs ([1]; three diabetic pig groups (STZ 110, 130 and 150 mg/kg), on average): four-fold greater | Area under the curve for the plasma insulin response (0-480 minutes after meal), nine weeks compared to two weeks after STZ infusion (diabetic pigs): two-fold larger
